Assay results published in patent publication US20050197350A1, “Novel quinoline, tetrahydroquinazoline, and pyrimidine derivatives and methods of treatment related to the use thereof” (TAISHO PHARMACEUTICAL CO., LTD., priority 2003, published 2005).

These molecules were tested on MCH receptors (assay: MCH receptor activity class (method not given)). Conditions: MCH receptor; class by percent of control at 10^-7 M or IC50.

Row | SMILES | class
1 | CN(C)c1nc(N[C@H]2CC[C@@H](NC(=O)Nc3cccs3)CC2)nc2c1CCCC2 [compound 1916] | 3 (Class 3 The value of percent of control at 10^−7 M was more than 60% or the value of IC50 was more than 200 nM.)
2 | CN(C)c1nc(N[C@H]2CC[C@@H](NC(=O)Nc3ccsc3)CC2)nc2c1CCCC2 [compound 1917] | 3 (Class 3 The value of percent of control at 10^−7 M was more than 60% or the value of IC50 was more than 200 nM.)
3 | CN(C)c1nc(N[C@H]2CC[C@@H](NC(=O)Nc3ccc(C(C)(C)C)cc3)CC2)nc2c1CCCC2 [compound 1918] | 3 (Class 3 The value of percent of control at 10^−7 M was more than 60% or the value of IC50 was more than 200 nM.)
4 | CN(C)c1nc(N[C@H]2CC[C@@H](NC(=O)Nc3ccc(-c4ccccc4)s3)CC2)nc2c1CCCC2 [compound 1919] | 3 (Class 3 The value of percent of control at 10^−7 M was more than 60% or the value of IC50 was more than 200 nM.)
5 | CN(C)c1nc(N[C@H]2CC[C@@H](NC(=O)Nc3cc(F)cc4c3OCOC4)CC2)nc2c1CCCC2 [compound 1920] | 3 (Class 3 The value of percent of control at 10^−7 M was more than 60% or the value of IC50 was more than 200 nM.)
6 | CN(C)c1nc(N[C@H]2CC[C@@H](NC(=O)NC3CCN(C(=O)OCc4ccccc4)CC3)CC2)nc2c1CCCC2 [compound 1921] | 3 (Class 3 The value of percent of control at 10^−7 M was more than 60% or the value of IC50 was more than 200 nM.)
7 | CN(C)c1ccc(NC(=O)N[C@H]2CC[C@@H](Nc3nc4c(c(N(C)C)n3)CCCC4)CC2)cc1 [compound 1922] | 3 (Class 3 The value of percent of control at 10^−7 M was more than 60% or the value of IC50 was more than 200 nM.)
8 | CN(C)c1nc(N[C@H]2CC[C@@H](NC(=O)Nc3cc(Cl)nc(Cl)c3)CC2)nc2c1CCCC2 [compound 1923] | 3 (Class 3 The value of percent of control at 10^−7 M was more than 60% or the value of IC50 was more than 200 nM.)
9 | Cc1noc(C)c1NC(=O)N[C@H]1CC[C@@H](Nc2nc3c(c(N(C)C)n2)CCCC3)CC1 [compound 1924] | 3 (Class 3 The value of percent of control at 10^−7 M was more than 60% or the value of IC50 was more than 200 nM.)
10 | CC(=O)c1cccc(NC(=S)N[C@H]2CC[C@@H](Nc3nc4c(c(N(C)C)n3)CCCC4)CC2)c1 [compound 1925] | 3 (Class 3 The value of percent of control at 10^−7 M was more than 60% or the value of IC50 was more than 200 nM.)
11 | CC(=O)c1ccc(NC(=S)N[C@H]2CC[C@@H](Nc3nc4c(c(N(C)C)n3)CCCC4)CC2)cc1 [compound 1926] | 3 (Class 3 The value of percent of control at 10^−7 M was more than 60% or the value of IC50 was more than 200 nM.)
12 | CN(C)c1nc(N[C@H]2CC[C@@H](NC(=S)Nc3cc(C(F)(F)F)cc(C(F)(F)F)c3)CC2)nc2c1CCCC2 [compound 1927] | 3 (Class 3 The value of percent of control at 10^−7 M was more than 60% or the value of IC50 was more than 200 nM.)
13 | CN(C)c1nc(N[C@H]2CC[C@@H](NC(=S)NCc3ccccc3)CC2)nc2c1CCCC2 [compound 1928] | 3 (Class 3 The value of percent of control at 10^−7 M was more than 60% or the value of IC50 was more than 200 nM.)
14 | CN(C)c1nc(N[C@H]2CC[C@@H](NC(=S)Nc3cccc(Br)c3)CC2)nc2c1CCCC2 [compound 1929] | 3 (Class 3 The value of percent of control at 10^−7 M was more than 60% or the value of IC50 was more than 200 nM.)
15 | CCCCNC(=S)N[C@H]1CC[C@@H](Nc2nc3c(c(N(C)C)n2)CCCC3)CC1 [compound 1930] | 3 (Class 3 The value of percent of control at 10^−7 M was more than 60% or the value of IC50 was more than 200 nM.)
16 | CN(C)c1nc(N[C@H]2CC[C@@H](NC(=S)NC3CCCCC3)CC2)nc2c1CCCC2 [compound 1931] | 3 (Class 3 The value of percent of control at 10^−7 M was more than 60% or the value of IC50 was more than 200 nM.)
17 | CN(C)c1nc(N[C@H]2CC[C@@H](NC(=S)NC3CCCC3)CC2)nc2c1CCCC2 [compound 1932] | 3 (Class 3 The value of percent of control at 10^−7 M was more than 60% or the value of IC50 was more than 200 nM.)
